Laboratory results taken from patent US9150557B1, “Compositions and methods for the treatment of hyperglycemia” (CELLIX BIO PRIVATE LIMITED, priority 2014, dated 2015).

Test: Water solubility: distilled water added to a weighed amount until a clear solution is obtained
Type: physicochemical
Conditions: for solubility: thermodynamic from solid, distilled water, weight in mg divided by volume of clear solution in mL
Method: Measurement of the water solubility of the test compounds is accomplished by using methods well known to those skilled in the art. Specifically, to a weighed amount of the test compound of the example compound Formula I (1-3) distilled water was added in small proportions until a clear solution was obtained. The total volume of the solution is measured. The water solubility is calculated by dividing the weight of the salt, in milligrams (mg), by the volume of the solution, in mL. […] The compound of Formula I (1-3) is therefore, at least 260 times more soluble in water than EPA itself. This is a clear indication of an unexpectedly high degree of bioavailability of the compositions of the invention. Highly water soluble medicinal preparations, when administered orally, result in efficient absorption from the gastrointestinal tract in to systemic circulation. Furthermore, water soluble preparations are especially suitable for parenteral administration.

Row | solubility | times more soluble in water than EPA (ratio of water solubility versus eicosapentaenoic acid (EPA)) | SMILES
1 | < 0.2 mg/mL | – | CC/C=C\C/C=C\C/C=C\C/C=C\C/C=C\CCCC(=O)O [EPA, Eicosapentaenoic acid, reference compound]
2 | 68.6 mg/mL | at least 260 times | CC/C=C\C/C=C\C/C=C\C/C=C\C/C=C\CCCC(=O)OCCCN1CC(O)[C@@H](O)[C@H](O)C1CO (stereo partly drawn) [Formula I (1-3)]
